Measured values as given in US20080033046A1, “Treatment of myocardial infarction with 11HSD1 inhibitors” (University of Edinburgh, priority 2004, published 2008).
Entries after “also recorded” stand apart in the source; their conditions may differ. Each block holds one molecule with its values, some of them ahead of it.

Key:
[1] = test system: mouse aortic rings; test: Angiogenesis in mouse aortic rings embedded in Matrigel (new vessel count); type: cell-based; conditions: for effect on the angiostatic effect of corticosterone / direct effect on angiogenesis in aortic rings (drug alone): drug 10^−6 M; for effect on the angiostatic effect of corticosterone: corticosterone 600 nM; for direct effect on angiogenesis in aortic rings (drug alone): no glucocorticoid
Protocol: Mice were killed humanely and thoracic aortae were removed, washed in serum free MCDB 131 medium (Invitrogen, UK), cleaned of periadventitial tissue and divided into 1-3 mm rings.
To quantify angiogenesis aortic rings were embedded in 200 μl of steroid free Matrigel (Becton Dickinson, UK) and incubated at 37° C. in serum free MCDB 131, with heparin, ascorbic acid, and GA1000 (Cambrex Biosciences, UK) in the presence and absence of: corticosterone (3 nM, 30 nM, 300 nM, 600 nM); 11-dehydrocorticosterone (300 nM, 60 nM); the glucocorticoid receptor antagonist, RU38486 (10^−6M)^59, the mineralocorticoid receptor antagonist, spironolactone (10^−6 M)^60; and/or the […] 11βHSD inhibitor, carbenoxolone (10^−4-10^−6M)^31. All drugs (Sigma-Aldrich, UK) were dissolved in ethanol and diluted in aqueous solution; final ethanol concentration 1-3% v/v. Media were changed every 48 hours. Experiments were performed in triplicate. In initial experiments, new vessels were counted daily using light microscopy (FIG. 1). From these studies day 7 was selected as the appropriate time point to examine the effects of glucocorticoids (FIG. 1c).
To confirm the nature of apparent new vessels, endothelial cells were identified by uptake of fluorescent-labelled acetylated low-density lipoprotein (DiI-Ac-LDL)(Biogenesis, Dorset UK) FIG. 1b).

[2] = test system: mouse aortic rings; test: as above; type: cell-based; conditions: wild type rings, drug 10^−6 M, 11-dehydrocorticosterone 600 nM
[3] = test system: subcutaneous sponge implants in mice; test: Subcutaneous sponge implant assay (vessel density, Chalkley counts); type: in vivo, mouse; conditions: 20 days; for effect of steroid-impregnated sponge on angiogenesis in vivo: 2 mg steroid in silastic insert
Protocol: (§1) Mice were anaesthetized with halothane and a sterilised sponge cylinder (0.5 cm×1 cm) (Caligen-Foam Ltd., UK) was implanted subcutaneously on each flank. Sponges contained a silastic insert (Silastic 20 medical grade, Dow Corning Corporation, USA) impregnated with vehicle, 2 mg of cortisol or cortisone, or 5 mg of RU38486. […] Such inserts release their impregnated compounds in vivo at a constant rate for 3 weeks. Human steroids (cortisol and cortisone, equivalent to corticosterone and 11-dehydrocorticosterone) were used to allow distinction from endogenous steroids. In separate experiments (not shown) angiogenesis in placebo-impregnated sponges was not altered by the presence or absence of a contralateral steroid-treated sponge.
(§2) Twenty days following implantation, mice were decapitated, sponges excised and inserts removed. Sponges were bisected; one half was fixed in 10% formalin and embedded in paraffin wax. Sections (8 μm) were stained with haematoxylin and eosin (H&E). The second half of the sponge was weighed, homogenised in 2 ml sterile phosphate buffered saline at 4° C. and centrifuged (2000 g; 30 minutes). Steroids were extracted from the supernatant using ethyl acetate and cortisol quantified using a specific radioimmunoassay (Amersham Pharmacia Biotech, UK). Sponge vessel density was determined by using the mean of triplicate Chalkley counts on 2 sections per sponge.

[4] = in vivo; conditions: mouse; for concentration at 20 days: Cortisol level
Protocol: as §1, §2

[5] = aortic rings from 11βHSD-1 −/− mice, glucocorticoid 600 nM, compared with wild type
[6] = wild type C57B16 aortic rings, 7-day incubation, physiological concentrations (up to 600 nM)
[7] = wild type rings, listed as Carbenoxolone

SMILES: C[C@]12CC(=O)[C@H]3[C@@H](CCC4=CC(=O)CC[C@@]43C)[C@@H]1CC[C@@H]2C(=O)CO [11-dehydrocorticosterone]
effect of glucocorticoid on angiogenesis in aortic rings [1, 5]: did not inhibit angiogenesis
effect of glucocorticoid on angiogenesis in aortic rings [1, 6]: inhibited angiogenesis; also recorded: angiostatic effect

SMILES: CC#C[C@]1(O)CC[C@H]2[C@@H]3CCC4=CC(=O)CCC4=C3[C@@H](c3ccc(N(C)C)cc3)C[C@@]21C [RU38486]
effect on the angiostatic effect of 11-dehydrocorticosterone [2]: prevented
effect on the angiostatic effect of corticosterone ([1]; wild type rings): prevented
direct effect on angiogenesis in aortic rings (drug alone) ([1]; wild type rings): did not affect; also recorded: no effect
new vessel formation in RU38486 impregnated sponges versus contralateral controls ([3]; wild type C57B16 mice, 5 mg in silastic insert): increased; also recorded: greater

SMILES: CC1(C)[C@@H](OC(=O)CCC(=O)O)CC[C@]2(C)[C@H]3C(=O)C=C4[C@@H]5C[C@@](C)(C(=O)O)CC[C@]5(C)CC[C@@]4(C)[C@]3(C)CC[C@@H]12 [carbenoxolone]
effect on the angiostatic effect of 11-dehydrocorticosterone [2]: prevented
effect on angiogenesis in aortic rings at high concentration ([1]; wild type rings, 10^−4 M): abolished angiogenesis
effect on the angiostatic effect of corticosterone ([1]; wild type rings): did not potentiate; also recorded: did not influence
effect on the angiostatic effect of corticosterone [1, 7]: no effect
direct effect on angiogenesis in aortic rings (drug alone) ([1]; wild type rings): no direct effect
direct effect on angiogenesis in aortic rings (drug alone) [1, 7]: no effect

SMILES: C[C@]12C[C@H](O)[C@H]3[C@@H](CCC4=CC(=O)CC[C@@]43C)[C@@H]1CC[C@@H]2C(=O)CO [corticosterone]
effect of glucocorticoid on angiogenesis in aortic rings [1, 5]: inhibited to a similar degree; also recorded: not different between strains
effect of glucocorticoid on angiogenesis in aortic rings [1, 6]: inhibited angiogenesis

concentration at 20 days ([4]; 11bHSD-1 −/−, contralateral placebo treated sponge): 135 ± 46 ng/g
concentration at 20 days ([4]; 11bHSD-1 −/−, ipsilateral steroid treated sponge): 3780 ± 1700 ng/g
sponge cortisol concentrations, in words [4]: similar
concentration at 20 days ([4]; wild type, contralateral placebo treated sponge): 161 ± 18 ng/g
concentration at 20 days ([4]; wild type, ipsilateral steroid treated sponge): 4270 ± 186 ng/g
SMILES: C[C@]12CCC(=O)C=C1CC[C@@H]1[C@@H]2[C@@H](O)C[C@@]2(C)[C@H]1CC[C@]2(O)C(=O)CO [cortisol]
effect of steroid-impregnated sponge on angiogenesis in vivo ([3]; 11βHSD-1 −/− mice): inhibited angiogenesis to a similar degree
effect of steroid-impregnated sponge on angiogenesis in vivo ([3]; 11βHSD-1 −/− mice, listed as Cortisol): inhibited angiogenesis
effect of steroid-impregnated sponge on angiogenesis in vivo ([3]; wild type C57B16 mice): inhibited angiogenesis

sponge cortisol concentrations after impregnation with cortisone compared with cortisol, in words [4]: lower
sponge cortisol concentrations, in words [4]: did not elevate
SMILES: C[C@]12CCC(=O)C=C1CC[C@@H]1[C@@H]2C(=O)C[C@@]2(C)[C@H]1CC[C@]2(O)C(=O)CO [cortisone]
effect of steroid-impregnated sponge on angiogenesis in vivo ([3]; 11βHSD-1 −/− mice): did not inhibit angiogenesis; also recorded: only in wild type mice
effect of steroid-impregnated sponge on angiogenesis in vivo ([3]; wild type C57B16 mice): inhibited angiogenesis

SMILES: CC(=O)S[C@@H]1CC2=CC(=O)CC[C@]2(C)[C@H]2CC[C@@]3(C)[C@@H](CC[C@@]34CCC(=O)O4)[C@H]12 [spironolactone]
effect on the angiostatic effect of 11-dehydrocorticosterone [2]: no effect
effect on the angiostatic effect of corticosterone ([1]; wild type rings): no effect
direct effect on angiogenesis in aortic rings (drug alone) ([1]; wild type rings): no effect
